ChEMBL document CHEMBL1144514, “The design, synthesis, and biological evaluation of novel substituted purines as HIV-1 Tat-TAR inhibitors” (Bioorg Med Chem, 2007)
pEC50: −log10 of the molar value.

Experiments:
[1] = Cytotoxicity against CEM174 cells; format: cell-based; conditions: human, read-out: TC50 (the source's name)
[2] = Selectivity index, ratio of EC50 for SIV infected CEM174 cells to TC50 for CEM174 cells; format: functional
[3] = system: Simian immunodeficiency virus; assay: Inhibition of SIV-induced cytopathogenicity in CEM174 cells; format: functional, organism-based
[4] = system: 293T; assay: Inhibition of Tat-mediated transactivation in human 293T cells assessed as CAT expression at 30 uM; format: cell-based; conditions: Human immunodeficiency virus 1

Structure (SMILES)	pEC50 [3]	CC50 [1] [µM]	Selectivity index [2]	inhibition [4] [%]
CCN(CC)c1nc(C)c2[nH]c(SCC(=O)NCCCNC(=N)N)nc2n1	6.15	> 100	>142.9	57.1
CCN(CC)c1nc(C)c2[nH]c(SCC(=O)NCCCN)[n+](CCCN(C)C)c2n1	6.70	> 100	>500	48.7
CCN(CC)c1nc(C)c2[nH]c(SCC(=O)NCCNC(=N)N)nc2n1	5.38	> 100	>23.8	57.1
Cc1cn([C@H]2C[C@H](N=[N+]=[N-])[C@@H](CO)O2)c(=O)[nH]c1=O [ZIDOVUDINE]	7.91	> 100	–	–
CCN(CC)CC[n+]1c(SCC(=O)NCCCNC(=N)N)[nH]c2c(C)nc(N(CC)CC)nc21	5.33	> 100	>21.3	36.2

More lines, main results first:

pEC50 [3]	Structure (SMILES)	CC50 [1] [µM]	Selectivity index [2]	inhibition [4] [%]
6.15	CCN(CC)CC[n+]1c(SCC(=O)NCCNC(=N)N)[nH]c2c(C)nc(N(CC)CC)nc21	> 100	>142.9	34.9
5.70	CCN(CC)c1nc(C)c2[nH]c(SCC(=O)NCCN)nc2n1	> 100	>50	65.7
5.47	CCN(CC)c1nc(C)c2[nH]c(SCC(=O)NCCN)[n+](CCCN(C)C)c2n1	> 100	>29.4	57.7
5.89	CCN(CC)CC[n+]1c(SCC(=O)NCCN)[nH]c2c(C)nc(N(CC)CC)nc21	52.2	40.2	43.1
6.30	CCN(CC)c1nc(C)c2[nH]c(SCC(=O)NCCCN)nc2n1	> 100	>200	58.4
5.49	CCN(CC)c1nc(C)c2[nH]c(SCC(=O)NCCCNC(=N)N)[n+](CCCN(C)C)c2n1	> 100	>31.25	48.8
5.85	CCN(CC)CC[n+]1c(SCC(=O)NCCCN)[nH]c2c(C)nc(N(CC)CC)nc21	> 100	>71.4	43.3
5.14	CCN(CC)c1nc(C)c2[nH]c(SCC(=O)NCCNC(=N)N)[n+](CCCN(C)C)c2n1	> 100	>13.9	50.2
